From patent US20100185419A1, “ALGORITHM FOR DESIGNING IRREVERSIBLE INHIBITORS” (Avila Therapeutics, Inc., priority 2008, published 2010)
Blank lines part the entries; values can stand above or below the compound they belong to.

Columns and labels:
Flt3 [1] = molecular target: T1, Flt3 (Homo sapiens, UniProt P36888); assay: Flt3 mass spectral analysis of tryptic digest; assay type: binding; conditions: 3 hrs at 100× excess, tryptic digest MALDI
T1 sequence (P36888 27-993): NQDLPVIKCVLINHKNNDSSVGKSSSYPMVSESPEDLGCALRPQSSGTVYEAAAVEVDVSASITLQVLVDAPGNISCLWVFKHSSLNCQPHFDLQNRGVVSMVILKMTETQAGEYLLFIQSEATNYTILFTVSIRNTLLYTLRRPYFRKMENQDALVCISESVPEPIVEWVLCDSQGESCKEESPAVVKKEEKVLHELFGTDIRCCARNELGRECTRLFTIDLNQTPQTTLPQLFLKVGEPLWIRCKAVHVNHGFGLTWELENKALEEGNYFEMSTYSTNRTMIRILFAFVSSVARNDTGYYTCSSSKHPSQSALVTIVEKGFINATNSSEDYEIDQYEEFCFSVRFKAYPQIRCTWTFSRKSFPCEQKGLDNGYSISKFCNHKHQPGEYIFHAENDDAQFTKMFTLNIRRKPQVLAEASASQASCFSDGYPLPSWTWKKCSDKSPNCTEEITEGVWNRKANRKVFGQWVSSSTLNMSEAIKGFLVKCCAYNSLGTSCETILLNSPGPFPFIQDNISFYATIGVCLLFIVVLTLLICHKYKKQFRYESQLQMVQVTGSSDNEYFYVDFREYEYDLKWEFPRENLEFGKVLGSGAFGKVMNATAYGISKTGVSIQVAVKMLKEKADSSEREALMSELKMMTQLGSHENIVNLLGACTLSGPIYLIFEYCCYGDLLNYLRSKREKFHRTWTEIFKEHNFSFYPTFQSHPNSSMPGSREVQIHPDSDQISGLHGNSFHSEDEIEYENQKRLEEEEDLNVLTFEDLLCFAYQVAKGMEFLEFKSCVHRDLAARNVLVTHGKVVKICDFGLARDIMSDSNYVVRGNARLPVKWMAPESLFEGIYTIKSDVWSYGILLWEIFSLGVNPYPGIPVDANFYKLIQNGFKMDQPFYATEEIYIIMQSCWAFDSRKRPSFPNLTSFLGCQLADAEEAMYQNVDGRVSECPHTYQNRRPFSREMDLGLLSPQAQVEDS
Protocol: Flt3 was incubated with Compound 4 for 3 hrs at 100× excess prior to tryptic digestion. Iodoacetamide was used as the alkylating agent after compound incubation. For tryptic digests a 5 ul aliquot (7 pmols) was diluted with 10 ul of 0.1% TFA prior to micro C18 Zip Tipping directly onto the MALDI target using alpha cyano-4-hydroxy cinnamic acid as the matrix (5 mg/ml in 0.1% TFA:Acetonitrile 50:50).
The mass spec instrument was set in Reflectron mode with a pulsed extraction setting of 1800. Calibration was done using the Laser Biolabs Pep Mix standard (1046.54, 1296.69, 1672.92, 2093.09, 2465.20). For CID/PSD analysis the peptide was selected using cursors to set ion gate timing and fragmentation occurred at a laser power about 20% higher and He was used as the collision gas for CID. Calibration for fragments was done using the P14R fragmentation calibration for the Curved field Reflectron.

Flt3 [2] = molecular target: T1, Flt3; assay: FLT3 biochemical assay (continuous-read kinase assay); design: purchased Invitrogen PV3182; conditions: 500 μM ATP; read-out: IC50 for inhibition of FLT3 phosphorylation
HCV NS3/4A 1b protease = HCV NS3/4A 1b protease (Hepatitis C virus genotype 1b, UniProt P26662); assay: biochemical
Protocol: An HCV Protease FRET Assay for HCV NS3/4A 1b Enzyme (IC50_APP) was used. The following protocol was used to generate “apparent” IC50 (IC50_APP) values. […] Protease reactions were immediately started after enzyme addition with the addition of 45 μL of the FRET substrate and monitored for 60-90 minutes at λex485/λem520 in a Synergy4 plate reader from BioTek (Winooski, Vt.).

HCV NS3/4A wild type = molecular target: T2, HCV NS3/4A wild type (Hepatitis C virus genotype 1b, UniProt P26662); assay: Mass spectral analysis of intact HCV NS3/4A wild type protease; assay type: binding; conditions: 10-fold excess of compound, 1 hr to 3 hrs, MALDI-TOF
T2 construct: The single-chain proteolytic domain (NS4A21-32-GSGS-NS33-631) was cloned into pET-14b; His tag; made in house; host or cells: Escherichia coli BL21
Protocol: Mass spectrometric analysis of HCV in the presence of Compound 5 was performed using the following protocol: HCV NS3/4A wild type (wt) was incubated for 1 hr at a 10× fold access of Compound 5 to protein. 2 μl aliquots of the samples were diluted with 10 μl of 0.1% TFA prior to micro C4 ZipTipping directly onto the MALDI target using Sinapinic acid as the desorption matrix (10 mg/ml in 0.1% TFA:Acetonitrile 50:50). The instrument was set in linear mode using a pulsed extraction setting of 24,500 and apomyoglobin as the standard to calibrate the instrument.
100 pmols of HCV wild type (Bioenza CA) was incubated with compound for 1 hr and 3 hrs at 10-fold access of Compound 6 to protein. 1 μl aliquots of the samples (total volume of 4.24 ul) were diluted with 10 μl of 0.1% TFA prior to micro C4 ZipTipping directly onto the MALDI target using Sinapinic acid as the desorption matrix (10 mg/ml in 0.1% TFA:Acetonitrile 50:50). Analyses were performed on a Shimadzu Biotech Axima TOF^2 (Shimadzu Instruments) matrix-assisted-laser desorption/ionization Time-of-Flight (MALDI-TOF) mass spectrometer.

[3] = tested on: Btk signaling in Ramos cells; assay: Btk Ramos cellular assay (PLCγ2 phosphorylation); assay type: cell-based; conditions: Homo sapiens, 1 μM compound
Protocol: Compounds CNX-85 was assayed in Ramos human Burkitt lymphoma cells. Ramos cells were grown in suspension in T225 flasks, spun down, resuspended in 50 mls serum-free media and incubated for 1 hour. Compound was added to Ramos cells in serum free media to a final concentration of 1, 0.1, 0.01, or 0.001 μM. Ramos cells were incubated with compound for 1 hour, washed again and resuspended in 100 ul serum-free media. Cells were then stimulated with 1 μg of goat F(ab′)2 Anti-Human IgM and incubated on ice for 10 minutes to activate B cell receptor signaling pathways. After 10 minutes, the cells were washed once with PBS and then lysed on ice with Invitrogen Cell Extraction buffer. 16 μg total protein from lysates were loaded on gel and blots were probed for phosphorylation of the Btk substrate PLCγ2.

Btk = molecular target: T3, Btk (Homo sapiens, UniProt Q06187); assay: Omnia assay for potency against Btk; conditions: biochemical assay; read-out: IC50 Btk kinase
T3 construct: purchased Invitrogen
Protocol: The protocol below describes continuous-read kinase assays to measure inherent potency of compounds against active forms of Btk enzyme. The mechanics of the assay platform are best described by the vendor (Invitrogen, Carlsbad, Calif.) on the world wide web at invitrogen.com/site/us/en/home/Products-and-Services/Applications/Drug-Discovery/Target-and-Lead-Identification-and-Validation/KinaseBiology/KB-Misc/Biochemical-Assays/Omnia-Kinase-Assays.html. Briefly, 10× stocks of 5 nM Btk from Invitrogen, 1.13×40 μM ATP (AS001A) and 10 μM (ATP KMapp ˜[…]) Tyr-Sox conjugated peptide substrates (KCZ 1001) were prepared in 1× kinase reaction buffer consisting of 20 mM Tris, pH 7.5, 5 mM MgCl2, 1 mM EGTA, 5 mM β-glycerophosphate, 5% glycerol (10× stock, KBOO2A) and 0.2 mM DTT (DS001A).

T3 sequence (Q06187 whole entry): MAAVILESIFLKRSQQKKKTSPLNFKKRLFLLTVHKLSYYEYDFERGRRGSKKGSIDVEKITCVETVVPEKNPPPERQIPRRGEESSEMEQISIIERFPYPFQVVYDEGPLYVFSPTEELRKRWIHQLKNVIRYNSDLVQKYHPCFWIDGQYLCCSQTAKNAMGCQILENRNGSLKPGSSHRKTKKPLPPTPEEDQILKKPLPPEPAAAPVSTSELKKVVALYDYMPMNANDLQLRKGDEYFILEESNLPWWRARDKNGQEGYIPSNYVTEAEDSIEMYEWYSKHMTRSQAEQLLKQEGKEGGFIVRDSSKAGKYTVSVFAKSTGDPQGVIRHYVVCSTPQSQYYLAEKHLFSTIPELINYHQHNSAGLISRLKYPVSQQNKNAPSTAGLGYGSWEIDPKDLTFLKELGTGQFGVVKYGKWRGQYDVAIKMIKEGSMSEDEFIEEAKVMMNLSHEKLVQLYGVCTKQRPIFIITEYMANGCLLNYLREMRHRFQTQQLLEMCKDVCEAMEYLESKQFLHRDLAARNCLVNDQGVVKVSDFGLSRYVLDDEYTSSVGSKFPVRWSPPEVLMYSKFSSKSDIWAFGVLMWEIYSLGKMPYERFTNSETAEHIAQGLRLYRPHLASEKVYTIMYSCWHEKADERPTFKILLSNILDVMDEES
T2 sequence (P26662 1013-1207, looked up, natural form): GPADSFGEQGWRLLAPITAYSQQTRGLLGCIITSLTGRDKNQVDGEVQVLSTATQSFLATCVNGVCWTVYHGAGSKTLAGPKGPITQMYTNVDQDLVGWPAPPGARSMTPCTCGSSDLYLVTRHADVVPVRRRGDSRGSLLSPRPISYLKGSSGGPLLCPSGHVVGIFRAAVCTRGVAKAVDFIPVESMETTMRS
Chain of HCV NS3/4A 1b protease (P26662 1027-1208): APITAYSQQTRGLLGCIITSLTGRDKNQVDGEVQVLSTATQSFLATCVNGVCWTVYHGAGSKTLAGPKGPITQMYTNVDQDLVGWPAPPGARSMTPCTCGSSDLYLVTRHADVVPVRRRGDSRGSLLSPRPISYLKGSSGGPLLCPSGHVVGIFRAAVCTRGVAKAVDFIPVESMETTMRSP
Chain of HCV NS3/4A 1b protease (P26662 1658-1711): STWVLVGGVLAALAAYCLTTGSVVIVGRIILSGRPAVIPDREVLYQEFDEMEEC

Structure (SMILES): C=CC(=O)Nc1ccc(Sc2nc(Nc3cc(C)n[nH]3)cc(N3CCN(C)CC3)n2)cc1 [Compound 4, N-(4-(4-(3-Methyl-1H-pyrazol-5-ylamino)-6-(4-methylpiperiazin-1-yl)pyrimidin-2ylthio)phenyl)acrylamide]
covalent modification of Flt3 (modified peptide) (Flt3 [1]): ICDFGLAR with Compound 4 attached
IC50 (Flt3 [2]): 2.2 nM

Structure (SMILES): C=C[C@@H]1C[C@]1(NC(=O)[C@@H]1C[C@@H](Oc2cc(-c3ccccc3)nc3cc(OC)ccc23)CN1C(=O)[C@H](CCC(=O)C=C(C)C)NC(=O)OC(C)(C)C)C(=O)NS(=O)(=O)C1CC1 [Compound 8, tert-butyl-(S)-1-((2S,4R)-2-((1R,2S)-1-(cyclopropylsulfonylcarbamoyl)-2-vinylcyclopropylcarbamoyl)-4-(7-methoxy-2-phenylquinolin-4-yloxy)pyrrolidin-1-yl)-7-methyl-1,5-dioxooct-6-en-2-ylcarbamate]
IC50 (HCV NS3/4A 1b protease): < 0.5 nM
adduct formation with HCV protease wild type (HCV NS3/4A wild type): adduct of HCV protease with the compound was formed

IC50 (Btk): 1.8 nM
Structure (SMILES): C=CC(=O)Nc1cccc(Nc2cc(Nc3ccc(Oc4ccccc4)cc3)ncn2)c1 [Compound 10, N-{3-[6-(4-phenoxyphenylamino)-pyrimidin-4-ylamino]phenyl}-2 propenamide]
inhibition at 1 µM [3]: 85%
